Test results as given in patent US20230022575A1, “BACTERIAL CONJUGATIVE SYSTEM AND THERAPEUTIC USES THEREOF” (SOCIÉTÉ DE COMMERCIALISATION DES PRODUITS DE LA RECHERCHE …, priority 2018, published 2023).
Values after ≈ are worked out from the molar mass of the structure shown.

Columns and labels:
KN01 = assay: Minimal inhibitory concentration (MIC) of EcN strains; assay type: cell-based, Escherichia coli Nissle 1917; details: Escherichia coli, read-out: Minimal inhibitory concentration (MIC)
KN02 = assay: as above; assay type: cell-based, Escherichia coli Nissle 1917; details: Escherichia coli, read-out: Minimal inhibitory concentration (MIC)
EcN = assay: as above; assay type: cell-based, Escherichia coli Nissle 1917; details: Escherichia coli; strain EcN
[1] = system: endogenous Enterobacteriaceae; assay: Streptomycin treatment and EcN (KN01) colonization of the murine gut; assay type: in vivo, mouse; details: 1 g/L of Sm in drinking water, mice
Method: FIGS. 3.A to G. Streptomycin (Sm) treatment improves mouse gut colonization by Escherichia coli Nissle 1917 (EcN). The ability of different Sm concentrations to deplete endogenous Enterobacteriaceae (white area) and to promote EcN colonization (gray area) was evaluated by quantifying CFU in feces from mice treated with 0 mg/L (FIG. 3.A), 50 mg/L (FIG. 3.B), 100 mg/L (FIG. 3.C), 250 mg/L (FIG. 3.D), 450 mg/L (FIG. 3.E) and 1000 mg/L (FIG. 3.F) in drinking water starting at day −2. The colonization levels of KN01 in several sections of the intestinal tract of untreated (0) and streptomycin-treated ( ) mice was evaluated (FIG. 3.G). […]
Mouse model. All mice-related protocols were designed in compliance with our institution Animal Care Comity Guidelines and were strictly evaluated to avoid animal suffering. […] Animal weight and health was monitored daily throughout each experiment. […] For Sm treated mice groups, Sm working concentration was first evaluated to maximize Enterobacteriaceae clearance and EcN colonization (Kotula et al., 2014). […] Bacterial load was monitored in feces sampling at specified time points. […] Animals were then dissected to reveal the colonization pattern and gut bacterial content was evaluated by CFU. […]
Feces and tissues processing. […] CFUs/mg sample were calculated as a function of the sample measured weight. […]

SMILES	MIC (KN01)	MIC (KN02)	MIC (EcN)	Enterobacteriaceae clearance and KN01 colonization [1]
CC1(C)S[C@@H]2[C@H](NC(=O)[C@H](N)c3ccccc3)C(=O)N2[C@H]1C(=O)O [Ap, ampicillin]	< 25 µg/mL	< 25 µg/mL	< 25 µg/mL	
O=C(N[C@H](CO)[C@H](O)c1ccc([N+](=O)[O-])cc1)C(Cl)Cl [Cm, chloramphenicol]	< 8 µg/mL	264 µg/mL (≈ 817 µM)	< 8 µg/mL	
[H]/N=C(/N)N[C@H]1[C@H](O)[C@@H](O)[C@H](O[C@@H]2O[C@@H](C)[C@](O)(C=O)[C@H]2O[C@@H]2O[C@@H](CO)[C@H](O)[C@@H](O)[C@@H]2NC)[C@@H](N/C(N)=N\[H])[C@@H]1O [Sm, streptomycin]	800 µg/mL (≈ 1380 µM)	> 1600 µg/mL	25 µg/mL (≈ 43 µM)	cleared Enterobactericeae while allowing stable colonization of the KN01 strain
CN[C@@H]1[C@H](O)[C@H](NC)[C@H]2O[C@@]3(O)C(=O)C[C@@H](C)O[C@H]3O[C@@H]2[C@H]1O [Sp, spectinomycin]	3000 µg/mL (≈ 9030 µM)		50 µg/mL (≈ 150 µM)	
